From patent publication US20250339360A1, “COSMETIC COMPOSITIONS COMPRISING RETINOIDS AND MOISTURIZERS AND METHODS FOR STABLIZING RETINOIDS” (ELC Management LLC, priority 2024, published 2025)

Assay: Retinoid storage stability in stability chamber, hydroxypinacolone retinoate analysed by UPLC/UV-VIS at 360 nm
Format: physicochemical
Conditions: 6-month testing period, 25° C. and 40° C., within measurement accuracy
Experimental: The above samples were tested under two sets of temperature conditions. Each sample was placed in a stability chamber maintained at either room temperature (25° C.±2° C.) or accelerated (elevated) temperature (40° C.±2° C.). Each stability chamber was maintained at a relative humidity of 60%+5%. Stability of the retinoid was monitored at various time points: initially, after one month, after two months, after three months, and after six months. Assessment of the retinoid stability was conducted by removing a sample from the stability chamber and analyzing for hydroxypinacolone retinoate by UPLC/UV-VIS (Waters ACQUITY UPLC H-Class PLUS System with a photodiode array (PDA) detector). A wavelength of 360 nm was used for analyses. The measured concentrations were determined with a measurement accuracy of about +10%. The initial and subsequent concentrations are believed to deviate from the expected 0.1 wt % due to some initial degradation of the stock hydroxypinacolone retinoate.

CC1=C(/C=C/C(C)=C/C=C/C(C)=C/C(=O)OCC(=O)C(C)(C)C)C(C)(C)CCC1 [hydroxypinacolone retinoate]
Hydroxypinacolone retinoate concentration over the testing period: remained essentially constant
